{"source": "patent US12516293B2", "about": "“Reagents and methods with Wnt agonists and bioactive lipids for generating and expanding cardiomyocytes” (The Board of Trustees of the Leland Stanford Junior …, priority 2018, dated 2026)", "assay_type_in_all_cases": "cell-based, human", "key": {"hiPSC-CMs": {"system": "hiPSC-CMs", "assay": "Sarcomere alignment and contractility on micropatterns", "description": "Cells were plated on soft substrates with micropatterned proteins on top. After 3-6 days of culture high resolution movies (Sony Microscopy) were recorded for at least 10 individual cells per group and motion velocity analysis was processed digitally. After recordings, cells were fixed and used for immunohistochemistry and confocal imaging. Sarcomere alignment was quantified with Image J software. CM maturation is accompanied by the formation of highly structured sarcomere, bi- or multinucleation, and cell cycle exit (Bassat et al., 2017; Bersell et al., 2009; Senyo et al., 2014; Uygur and Lee, 2016). […] To address this, age-matched hiPSC-CMs exposed to media containing DMSO (CTR) were compared to ones that have undergone 3 passages in media containing 2.0 μM CHIR using various phenotypic assays of CM function. To assess sarcomere alignment, CHIR and CTR hiPSC-CMs on 7:1 aspect ratio micropatterns (Ribeiro et al., 2015) were cultured and immunostained with TnT and sarcomeric actinin antibodies."}, "[1]": {"system": "AKT1/2/3 and other kinases", "assay": "Phospho-kinase array and western blot in CHIR-treated hiPSC-CMs", "description": "Kinase phosphorylation levels were screened with a Proteome Profiler Human Phospho-Kinase Array Kit (R&D Systems) containing 43 human kinases and total amounts of 2 proteins. Validation was performed with regular western blotting. Total protein expression was measured with a gel imager (Biorad) and processed with pixel intensity software (Biorad)."}, "hiPSCs": {"system": "hiPSCs", "assay": "hiPSC morphology, cell number and marker expression", "conditions": "48-hour treatment of hiPSCs, immunostaining and qPCR", "from_the_text": "The changes in gene expression was validated after treatment with bioactive lipids or CHIR from the microarray studies with immunostaining and quantitative PCR analysis (FIG. 17D-E)."}}, "data": [{"smiles": "Cc1c[nH]c(-c2cnc(NCCNc3ccc(C#N)cn3)nc2-c2ccc(Cl)cc2Cl)n1", "note": "[CHIR99021]", "values": [{"measurement": "sarcomere alignment and organization", "setting": "hiPSC-CMs; 3 passages in 2.0 μM CHIR vs age-matched CTR", "value": "markedly reduced alignment and organization of sarcomeres"}, {"measurement": "contractile force generation", "setting": "hiPSC-CMs; CHIR-treated vs CTR cells", "value": "decreased force generation"}, {"measurement": "phosphorylation of HSP27 and p70S6K", "setting": "[1]; CHIR", "value": "increased phosphorylation"}, {"measurement": "phosphorylation of growth suppressor P27", "setting": "[1]; CHIR", "value": "subtle increase"}, {"measurement": "AKT1/2/3 phosphorylation at T308", "setting": "[1]; screen of 43 kinases, CHIR", "value": "significant upregulation"}, {"measurement": "active form of AKT (pAKT T308)", "setting": "[1]; western blot, CHIR vs DMSO", "value": "rapidly increased"}, {"measurement": "Brachyury T (Bry T) expression", "setting": "hiPSCs", "value": "increase both VIM and Brachyury T (Bry T) expression"}, {"measurement": "VIM expression", "setting": "hiPSCs", "value": "increase both VIM and Brachyury T (Bry T) expression"}]}]}
